Entries after “also recorded” stand apart in the source; their conditions may differ.
What was measured:
[1] = tested on: prothrombin time and partial thromboplastin time; test: Standard coagulation assays (prothrombin time, partial thromboplastin time); assay type: in vivo, human
Description: (§1) Measurement of soluble P-selectin (CD62) was performed centrally using a commercial ELISA (Invitrogen/ThermoFisher Scientific #BMS219-4) and prothrombin time and partial thromboplastin time according to standard manufacturer protocol on a Sago Start 4 instrument (STA-Neoplastine CI Plus 5 #00606, STA-PTT Automate 5 #00595).

[2] = tested on: platelet-dependent thrombin generation; test: Platelet-dependent thrombin generation assay on patient plasma; assay type: in vivo, human; settings: follow-up vs baseline
Text: The platelet-dependent thrombin generation assay measures thrombin generation following platelet activation and requires PDI. […] Correlation between PDI inhibitory activity in plasma and platelet-dependent thrombin generation confirmed the PDI-dependency of thrombin generation (Spearman coefficient 0.29, P=0.004). There was significant correlation between increased plasma PDI inhibitory activity and decreased thrombin generation (Pearson correlation coefficient 0.45, P=0.002)
Platelet-dependent thrombin generation was performed according to previously published methodology (Stopa J D et al., JCI insight. 2017;2(1):e89373; Jurk K et al. J Thromb Haemost. 2011; 9(11):2278-90). Briefly, platelet-free plasma was mixed with donor platelet-rich plasma diluted to a platelet concentration of 250,000 platelets per microliter in the presence of 5 mM GPRP and 6 mM CaCl2), and then stimulated with 0.1 U/ml of thrombin. Samples were incubated for 90 min at room temperature with rotation, and thrombin levels were measured using cleavage of a fluorescent thrombin-specific substrate (Haemtech SN-20 Boc-L-FPR-ANSNH-C2H5) by excitation at 352 nm and emission as a function of time at 470 nm. Rates of substrate cleavage were used to calculate the concentration of thrombin in each sample.

[3] = tested on: patients with advanced cancer; test: Venous thromboembolism monitoring (clinical and end-of-study lower extremity ultrasound); assay type: in vivo, human
Text: Patients were monitored for the development of venous thromboembolism (VTE) throughout the two months of the study including an end-of-study bilateral lower extremity ultrasound to evaluate for asymptomatic lower extremity proximal DVT. Shown in FIG. 3A-FIG. 3D is the proportion of patients remaining free of VTE through the course of the study. […] There were three secondary VTE endpoints recorded in cohort A (FIG. 3C, two incidental catheter-associated DVT diagnosed with re-staging imaging and one lower extremity superficial venous clot). In cohort B (FIG. 3D), there were two secondary endpoint thrombotic events recorded (superficial venous clot of the lower extremity and incidental thrombosis observed in a lingular pulmonary vein on re-staging imaging).
(§2) The ratio of components in the capsules was: 1:0.25:0.02 of isoquercetin, vitamin C, and vitamin B3, respectively. It is noted that folic acid can optionally be present in the isoquercetin composition. Isoquercetin was taken orally daily for a total of 56 days. The first 5 patients of each cohort were monitored for evidence of toxicity prior (≥1 grade 3 or higher toxicity possibly related to isoquercetin) prior to the subsequent enrollment of 25 patients into each cohort. Patients were monitored for development of a venous thromboembolic event throughout the study including a bilateral lower extremity duplex ultrasound at end of study visit (day 56±5). Participants were taken off study if they developed an intercurrent illness that prevented further administration; unacceptable adverse events; poor compliance; participant preference; VTE or condition requiring therapeutic anticoagulation; requirement for prophylactic anticoagulation for >7 consecutive days; or grade ≥3 hemorrhage or otherwise met the ISTH criteria for major hemorrhage. Doses were held for grade 2 hemorrhage or platelet count <50×10^9/L.
The primary VTE endpoint included any symptomatic proximal or distal deep vein thrombosis, symptomatic PE or fatal PE diagnosed by autopsy, asymptomatic proximal DVT diagnosed by protocol-specified ultrasound at end of study. All suspected VTE were assessed by an independent adjudication committee that included central radiologic review of images. Criteria for new VTE included any of the following: A) A new noncompressibility of lower extremity deep venous segments by compression ultrasound (distal lower extremity thrombus qualified for primary VTE endpoint only if symptomatic). […] All other venous or arterial events were recorded and analyzed as secondary endpoints. […]

[4] = isoquercetin at 500 mg; prior pharmacokinetic studies; cited from earlier work
[5] = tested on: soluble P-selectin; test: Soluble P-selectin (CD62) in plasma, commercial ELISA; assay type: in vivo, human; settings: for median change in soluble P-selectin: end-of-treatment vs baseline plasma
Text: P-selectin is a transmembrane adhesion receptor that is externalized from α-granules in platelets and Weibel-Palade bodies in endothelial cells following cell activation. P-selectin can be shed from the cell surface following externalization and P-selectin shedding is increased in cardiovascular disease, sepsis, and cancer. […] As PDI inhibition alters platelet and endothelial reactivity, baseline versus end-of-treatment plasma levels of soluble P-selectin following treatment with isoquercetin was compared. As shown in FIG. 6A-FIG. 6B, there was no change in soluble P-selectin in Cohort A (FIG. 6A) (median change −0.3%, P=0.26).
as §1

[6] = tested on: patients with advanced cancer; test: Safety: hemorrhage (ISTH) and toxicities (CTCAE) in phase II trial; assay type: in vivo, human
Text: as §2
The primary VTE endpoint included any symptomatic proximal or distal deep vein thrombosis, symptomatic PE or fatal PE diagnosed by autopsy, asymptomatic proximal DVT diagnosed by protocol-specified ultrasound at end of study. All suspected VTE were assessed by an independent adjudication committee that included central radiologic review of images. Criteria for new VTE included any of the following: A) A new noncompressibility of lower extremity deep venous segments by compression ultrasound (distal lower extremity thrombus qualified for primary VTE endpoint only if symptomatic). B) Intraluminal defects in two or more views on pulmonary angiography, sudden contrast cut-off of one or more vessels greater than 2.5 mm in diameter on a pulmonary angiogram; a high probability VQ lung scan showing one or more segmental perfusion defects with corresponding normal ventilation (mismatch defect); or abnormal spiral CT showing thrombus in pulmonary vessels (subsegmental or larger). All other venous or arterial events were recorded and analyzed as secondary endpoints. Criteria for major hemorrhage was according to ISTH definition (Schulman S, and Kearon C. J Thromb Haemost. 2005; 3(4):692-4). All toxicities were graded according NCI Common Terminology Criteria for Adverse Events (CTCAE). Study oversight was performed by an independent Data Safety Monitoring Committee at Dana Farber Harvard Cancer Center.

[7] = tested on: D-dimer; test: Plasma D-dimer (Asserachrom D-Di ELISA), phase II trial in cancer patients; assay type: in vivo, human
Description: A multi-center, multi-dose phase II trial was conducted to evaluate, among other markers and readouts, the efficacy of targeting protein disulfide isomerase (PDI) along with soluble P-selectin with isoquercetin to reduce the hypercoagulability in cancer patients at high risk for venous thromboembolism (VTE). Patients received isoquercetin at 500 mg (cohort A) or 1000 mg (cohort B) daily for 56 days with laboratory assays at the beginning and at completion of study (along with duplex ultrasound). The primary endpoint was a reduction in D-dimer and the primary clinical endpoint included pulmonary embolism or proximal deep vein thrombosis, and also included measuring the level of soluble P-selectin. (See, Zwicker et al., JCI Insight.2019; 4(4):e125851.)
The primary endpoint of the study was comparison of plasma D-dimer at baseline and end-of-study. D-dimer is liberated from cross-linked fibrin following […] degradation. D-dimer is the most validated and commonly utilized laboratory assay in the clinic to detect deep vein thrombosis. In patients with advanced cancer, plasma D-dimer levels are commonly elevated and correlate with an increased risk for developing of VTE.
Participants were sequentially enrolled into two dosing cohorts: Cohort A (isoquercetin 500 mg) and Cohort B (isoquercetin 1000 mg). Isoquercetin was supplied in capsules containing 250 mg of isoquercetin each with 10 mg added as overage to guarantee a minimum of 250 mg of isoquercetin per capsule with added Vitamin C and Vitamin B3 by Quercegen Pharmaceuticals LLC (Boston, MA). The drug product capsules were manufactured by Pharmavize NV, Kleinmoer 4, 9030 Mariakerke, Belgium.
The ratio of components in the capsules was: 1:0.25:0.02 of isoquercetin, vitamin C, and vitamin B3, respectively. It is noted that folic acid can optionally be present in the isoquercetin composition. Isoquercetin was taken orally daily for a total of 56 days. The first 5 patients of each cohort were monitored for evidence of toxicity prior (≥1 grade 3 or higher toxicity possibly related to isoquercetin) prior to the subsequent enrollment of 25 patients into each cohort. Patients were monitored for development of a venous thromboembolic event throughout the study including a bilateral lower extremity duplex ultrasound at end of study visit (day 56±5). […]
Blood was drawn by peripheral venipuncture into 3.2% citrate. […] D-dimer was measured centrally using Asserrachrom D-Di ELISA, considered the reference standard assay for D-dimer (Stago, France) (Meyer G. et al., Blood Coagulation & Fibrinolysis. 1998; 9(7):603-8.).

[8] = tested on: soluble P-selectin; settings: standard anticoagulants compared in words; cited from earlier work
[9] = Cohort A, isoquercetin 500 mg daily
[10] = Cohort B, isoquercetin 1000 mg daily

O=c1c(O[C@@H]2O[C@H](CO)[C@@H](O)[C@H](O)[C@H]2O)c(-c2ccc(O)c(O)c2)oc2cc(O)cc(O)c12 [isoquercetin, 2-(3,4-Dihydroxyphenyl)-5,7-dihydroxy-3-[(2S,3R,4S,5S,6R)-3,4,5-trihydroxy-6-(hydroxymethyl)oxan-2-yl]oxychromen-4-one]
mean PT at 2-months ([1]; Cohort A, 500 mg daily, baseline 14.0 seconds): 14.3 s
mean PTT at study completion ([1]; Cohort A, 500 mg daily, baseline 49.6 seconds): 45.6 s
mean PT at 2-months ([1]; Cohort B, 1000 mg daily, baseline 15.1 seconds): 15.2 s
mean PTT at 2-months ([1]; Cohort B, 1000 mg daily, baseline 54.2 seconds): 51.9 s
effects in standard coagulation assays (in words) ([1]; following administration of isoquercetin, both cohorts): no effects detected
median change in platelet-dependent thrombin generation [2, 9]: −31.1%
median change in platelet-dependent thrombin generation [2, 10]: −57.2%
secondary VTE endpoints recorded ([3]; Cohort A, 500 mg daily, two catheter-associated DVT, one superficial venous clot): three
secondary endpoint thrombotic events recorded ([3]; Cohort B, 1000 mg daily, superficial venous clot, lingular pulmonary vein thrombosis): two
primary VTE endpoint events ([3]; both cohorts (500 mg and 1000 mg daily), 2-month study): no VTE that met criteria for the primary VTE endpoint; also recorded: no primary VTE endpoints observed
proximal deep vein thrombosis, pulmonary emboli, or major hemorrhage observed ([3]; treated patients, cancer population at higher risk for thrombosis and hemorrhage): none of the following were observed
plasma concentrations relative to IC50 of PDI activity in vitro [4]: fall below the inhibitory concentration (IC50) of PDI activity in vitro
median change in soluble P-selectin [5, 9]: −0.3%
patients with decreased soluble P-selectin (in words) [5, 10]: decreased in all patients except one
median change in soluble P-selectin [5, 10]: −57.9%
patients developing grade 1 epistaxis ([6]; Cohort A, 500 mg daily): One
patients developing non-severe gastrointestinal bleeding ([6]; Cohort B, 1000 mg daily, grade 1 hemorrhoid and grade 2 rectal bleeding): two
severe adverse events (grade 3 or 4) attributed to isoquercetin ([6]; both cohorts): no severe adverse events (grade 3 or 4); also recorded: No grade 3 or 4 toxicities were reported
major hemorrhages ([6]; both cohorts, modified intention-to treat analyses): no major hemorrhages observed
most commonly reported toxicities on study ([6]; common toxicities of the concurrent chemotherapeutics): nausea and diarrhea
deaths during the 2 months of follow-up ([6]; following initiation of isoquercetin): no deaths reported
individuals with reduced D-dimer ([7]; Cohort B, 1000 mg daily, paired samples): 18 of 22
median change in D-dimer ([7]; Cohort B, isoquercetin 1000 mg daily oral, 56 days, baseline vs end-of-study, cancer patients): −21.9%
median decrease of D-dimer plasma concentrations ([7]; isoquercetin 1000 mg daily, 56 days, printed as decrease without sign): 21.9%
reduction of D-dimer levels (in words) ([7]; lower dose, isoquercetin 500 mg): did not reduce D-dimer levels

O=C(NC[C@H]1CN(c2ccc(N3CCOCC3=O)cc2)C(=O)O1)c1ccc(Cl)s1 [rivaroxaban]
lowering of soluble P-selectin levels (activity shared with isoquercetin or not) [8]: not shared

CC(=O)CC(c1ccccc1)c1c(O)c2ccccc2oc1=O (stereo not drawn) [warfarin]
lowering of soluble P-selectin levels (activity shared with isoquercetin or not) [8]: not shared

From patent US12290527B2, “Compositions and methods for reducing major thrombotic events in cancer patients” (Beth Israel Deaconess Medical Center, Inc., priority 2018, dated 2025)
